This passage reports EC50 and EC90 results from patent US9353051B2, “Antiviral drugs for treatment or prevention of dengue infection” (Siga Technologies Inc., priority 2007, dated 2016).

pEC50: −log10 of the molar value. Like-named read-outs stand apart in the source and are kept apart here.

Test [1] relates to Dengue-2 (Strain New Guinea C). Description: viral yield assay against Dengue-2 in Vero cells. It is filed as cell-based. To be noted: Dengue virus, Vero cells; for EC90: read-out: EC90 Yield Den-2. Put shortly:
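Vero cells infected with dengue-2 at MOI 0.1 were treated with compound (DMSO control) at 37° C., harvested 48 h post infection and titered on Vero cells.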

The test system of test [2] is Bovine Viral Diarrhea Virus (BVDV). The test can be described thus: specificity: activity against BVDV. It counts as cell-based. Here is the method:
(§1) Select compounds were also tested for more broad spectrum activity against other members of the Flaviviridae family including Modoc, which is a murine flavivirus, as well as Bovine Viral Diarrhea Virus (BVDV), which is a Pestivirus. Since dengue virus is able to replicate in multiple cell lines and to ensure that the activity seen in vero cells is consistent, select compounds were also tested for their effective concentration in a viral yield assay against dengue-2 in C6/36 mosquito cells.

The subject of the next test is Den-1. Description: viral yield assay against Den-1. To be noted: Dengue virus. It is filed as cell-based.
The next test concerns Den-3. The test can be described thus: viral yield assay against Den-3. It is filed as cell-based. To be noted: Dengue virus.
Another test concerns Den-4. The test can be described thus: viral yield assay against Den-4. To be noted: Dengue virus. It is filed as cell-based.
The test system of a further test is Modoc. Description: specificity: activity against Modoc. It counts as cell-based, murine flavivirus. To be noted: Orthoflavivirus, in Mus musculus. Here is the method:
as §1

Where [3] appears, read: MOI 0.1, harvested 48 hours post infection, read-out: Activity (anti-dengue 2 viral activity, EC50).
[4] abbreviates: viral yield assay, read-out: EC50 Yield Den-2.
Setting [5] is: Bovine viral diarrhea virus isolates and strains, read-out: Specificity BVDV.
The mark [6] stands for this setting: Bovine viral diarrhea virus isolates and strains; read-out: Specificity BVDV.

As for `CCN(CC)S(=O)(=O)c1ccc(NC(=O)Cn2nnc3ccccc3c2=O)cc1` [Compound 3, N-(4-Diethylsulfamoyl-phenyl)-2-(4-oxo-4H-benzo[d][1,2,3]triazin-3-yl)-acetamide], the pEC50 in test [1] (setting [3]) is 5.00 to 6.00; in test [1] (setting [4]), 5.40; in test [2] (setting [5]), less than 4.30; in the test on Den-1, 5.89; in the test on Den-3 it was 6.00; with Den-4, 5.64. In the test on Modoc, this molecule gave a pEC50 of 5.51. Further, the concentration for an effect of 90% (EC90) in test [1] (viral yield assay) turned out to be 10 µM; in the test on Den-1 it was 5.1 µM; in the test on Den-3, 12.1 µM; in the test with Den-4 it was 10 µM.

As to `CCN(CC)S(=O)(=O)c1ccc(NC(=O)Cn2cnc3c2c(=O)n(C)c(=O)n3C)cc1` [Compound 4, N-(4-Diethylsulfamoyl-phenyl)-2-(1,3-dimethyl-2,6-dioxo-1,2,3,6-tetrahydro-purin-7-yl)-acetamide], the pEC50 is 5.00 to 6.00 in test [1] (setting [3]); 5.11 in test [1] (setting [4]); less than 4.30 in test [2] (setting [6]); 4.87 in the test on Den-3; 5.37 in the test with Den-4; less than 4.60 in the test on Modoc. Further, the EC90 in test [1] (viral yield assay) stood at 8.9 µM; in the test on Den-3, 22.6 µM; with Den-4, 22.7 µM.

Turning to `CC(C)N(C)S(=O)(=O)c1ccc(NC(=O)Cn2cnc3ccc(Cl)cc3c2=O)cc1` [Compound 6, 2-(6-Chloro-4-oxo-4H-quinazolin-3-yl)-N-[4-(isopropyl-methyl-sulfamoyl)-phenyl]-acetamide], the figures for the pEC50 in test [1] (setting [3]), in test [1] (setting [4]) and in test [2] (setting [6]) were 5.00 to 6.00, 5.74 and 4.19, respectively. For the same molecule, the concentration for an effect of 90% (EC90) in test [1] (viral yield assay) stood at 43.2 µM.

Take `CC(C)N(C)S(=O)(=O)c1ccc(NC(=O)Cn2cnc3cc(F)ccc3c2=O)cc1` [Compound 7, 2-(7-Fluoro-4-oxo-4H-quinazolin-3-yl)-N-[4-(isopropyl-methyl-sulfamoyl)-phenyl]-acetamide]: the pEC50 was 5.00 to 6.00 in test [1] (setting [3]), 5.34 in test [1] (setting [4]) and less than 4.30 in test [2] (setting [6]). Further, the EC90 in test [1] (viral yield assay) was greater than 50 µM.

`CCN(CC)S(=O)(=O)c1ccc(NC(=O)Cn2[nH]c(=O)c3ccccc3c2=O)cc1` [Compound 8, N-(4-Diethylsulfamoyl-phenyl)-2-(1,4-dioxo-3,4-dihydro-1H-phthalazin-2-yl)-acetamide]: the pEC50 in test [1] (setting [3]) is 5.00 to 6.00; in test [1] (setting [4]), 5.55; in test [2] (setting [6]), less than 4.30. Besides, in test [1] (viral yield assay), the concentration for an effect of 90% (EC90) was found to be 25.6 µM.

Turning to `CCN(CC)S(=O)(=O)c1ccc(NC(=O)CN2C(=O)c3cccc4cccc(c34)C2=O)cc1` [Compound 9, N-(4-Diethylsulfamoyl-phenyl)-2-(1,3-dioxo-1H,3H-benzo[de]isoquinolin-2-yl)-acetamide], the pEC50 is 5.00 to 6.00 in test [1] (setting [3]), 5.89 in test [1] (setting [4]) and less than 4.30 in test [2] (setting [6]). For the same molecule, the EC90 in test [1] (viral yield assay) was found to be 7.3 µM.

Consider `CCN(CC)S(=O)(=O)c1ccc(OC)c(NC(=O)CC(C)C)c1` [Compound 15, N-(5-Diethylsulfamoyl-2-methoxy-phenyl)-3-methyl-butyramide], for which the pEC50 in test [1] (setting [3]) is 5.00 to 6.00; in test [1] (setting [4]) it was 5.62; in test [2] (setting [5]), less than 4.30; with Den-4 it was 5.92; with Modoc it was 5.00. Besides, the EC90 in test [1] (viral yield assay) was greater than 100 µM; with Den-4 it was 37.2 µM.

For `CCN(CC)S(=O)(=O)c1ccc(OC)c(NC(=O)Cc2ccccc2)c1` [Compound 16, N-(5-Diethylsulfamoyl-2-methoxy-phenyl)-2-phenyl-acetamide], the pEC50 is 5.00 to 6.00 in test [1] (setting [3]); 5.24 in test [1] (setting [4]); less than 4.30 in test [2] (setting [5]); 5.68 with Den-4; 5.44 with Modoc. Moreover, the 90% effect concentration (EC90) in test [1] (viral yield assay) is 10.3 µM; in the test on Den-4 it was 6.4 µM.

For `CCCCC(=O)Nc1cc(S(=O)(=O)N(CC)CC)ccc1OC` [Compound 21, Pentanoic acid (5-diethylsulfamoyl-2-methoxy-phenyl)-amide], the pEC50 is 4.60 to 5.00 in test [1] (setting [3]); 4.85 in test [1] (setting [4]); less than 4.30 in test [2] (setting [5]); 5.09 in the test with Den-4; 5.22 with Modoc. In addition, the EC90 in test [1] (viral yield assay) came to 24.1 µM; with Den-4, 12 µM.

For `CN(c1ccccc1)S(=O)(=O)c1cccc(NC(=O)Cn2cnc3ccccc3c2=O)c1` [Compound 122, N-[3-(Methyl-phenyl-sulfamoyl)-phenyl]-2-(4-oxo-4H-quinazolin-3-yl)-acetamide], the pEC50 in test [1] (setting [3]) is less than 4.60.

As to `O=C(Cn1cnc2cc([N+](=O)[O-])ccc2c1=O)Nc1ccc(S(=O)(=O)N2CCCC2)cc1` [Compound 123, 2-(7-Nitro-4-oxo-4H-quinazolin-3-yl)-N-[4-(pyrrolidine-1-sulfonyl)-phenyl]-acetamide], the pEC50 in test [1] (setting [3]) was less than 4.60.

As for `O=C(COC(=O)Cn1cnc2ccccc2c1=O)Nc1ccc(S(=O)(=O)N2CCCC2)cc1` [Compound 124, (4-Oxo-4H-quinazolin-3-yl)-acetic acid [4-(pyrrolidine-1-sulfonyl)-phenylcarbamoyl]-methyl ester], the pEC50 in test [1] (setting [3]) was less than 4.60.

In the case of `COc1ccc(S(=O)(=O)N(C)C)cc1NC(=O)COC(=O)Cn1cnc2ccccc2c1=O` [Compound 125, (4-Oxo-4H-quinazolin-3-yl)-acetic acid (5-dimethylsulfamoyl-2-methoxy-phenylcarbamoyl)-methyl ester], the pEC50 in test [1] (setting [3]) was less than 4.60.

As for `COc1ccc(S(=O)(=O)N(C)C)cc1NC(=O)Cn1cnc2cc([N+](=O)[O-])ccc2c1=O` [Compound 126, N-(5-Dimethylsulfamoyl-2-methoxy-phenyl)-2-(7-nitro-4-oxo-4H-quinazolin-3-yl)-acetamide], the pEC50 in test [1] (setting [3]) was less than 4.60.

For `O=C(Cn1cnc2ccccc2c1=O)Nc1ccc(S(=O)(=O)O)cc1` [Compound 127, 4-[2-(4-Oxo-4H-quinazolin-3-yl)-acetylamino]-benzenesulfonic acid], the pEC50 in test [1] (setting [3]) was less than 4.60.

Regarding `CN(C)S(=O)(=O)c1cccc(COC(=O)Cn2cnc3ccccc3c2=O)c1` [Compound 128, (4-Oxo-4H-quinazolin-3-yl)-acetic acid 3-dimethylsulfamoyl-benzyl ester], the pEC50 in test [1] (setting [3]) was less than 4.60.

In the case of `Cc1ccc(S(=O)(=O)N(C)C)cc1NC(=O)Cn1cnc2ccc(Cl)cc2c1=O` [Compound 129, 2-(6-Chloro-4-oxo-4H-quinazolin-3-yl)-N-(5-dimethylsulfamoyl-2-methyl-phenyl)-acetamide], in test [1] (setting [3]), the pEC50 was less than 4.60.

Regarding `NS(=O)(=O)c1ccc(CCNC(=O)Cn2c(=O)cnc3ccccc32)cc1` [Compound 130, 2-(2-Oxo-2H-quinoxalin-1-yl)-N-[2-(4-sulfamoyl-phenyl)-ethyl]-acetamide], the pEC50 in test [1] (setting [3]) is less than 4.60.

Regarding `NS(=O)(=O)c1cccc(NC(=O)Cn2nnc3ccccc3c2=O)c1` [Compound 131, 2-(4-Oxo-4H-benzo[d][1,2,3]triazin-3-yl)-N-(3-sulfamoyl-phenyl)-acetamide], the pEC50 in test [1] (setting [3]) was less than 4.60.

For `CC(c1ccc(S(N)(=O)=O)cc1)N(C)C(=O)CCc1nc2ccccc2c(=O)[nH]1` (stereo not drawn) [Compound 132, N-Methyl-3-(4-oxo-3,4-dihydro-quinazolin-2-yl)-N-[1-(4-sulfamoyl-phenyl)-ethyl]-propionamide], the pEC50 in test [1] (setting [3]) was less than 4.60.

Turning to `CC(C)NS(=O)(=O)c1ccc(NC(=O)C(C)N(C)Cc2nc3ccccc3c(=O)[nH]2)cc1` (stereo not drawn) [Compound 133, N-(4-Isopropylsulfamoyl-phenyl)-2-[methyl-(4-oxo-3,4-dihydro-quinazolin-2-ylmethyl)-amino]-propionamide], in test [1] (setting [3]), the pEC50 is less than 4.60.

For `O=C(Cn1cnc2ccc([N+](=O)[O-])cc2c1=O)Nc1ccc(S(=O)(=O)N2CCCCC2)cc1` [Compound 134, 2-(6-Nitro-4-oxo-4H-quinazolin-3-yl)-N-[4-(piperidine-1-sulfonyl)-phenyl]-acetamide], the pEC50 in test [1] (setting [3]) was less than 4.60.

Take `O=C(Cn1cnc2ccc([N+](=O)[O-])cc2c1=O)Nc1ccc(S(=O)(=O)N2CCOCC2)cc1` [Compound 135, N-[4-(Morpholine-4-sulfonyl)-phenyl]-2-(6-nitro-4-oxo-4H-quinazolin-3-yl)-acetamide]: the pEC50 in test [1] (setting [3]) was less than 4.60.

Turning to `COc1ccc(NC(=O)Cn2cnc3ccccc3c2=O)cc1S(N)(=O)=O` [Compound 136, N-(4-Methoxy-3-sulfamoyl-phenyl)-2-(4-oxo-4H-quinazolin-3-yl)-acetamide], in test [1] (setting [3]), the pEC50 was less than 4.60.

Consider `Cc1ccc(-n2c(CCC(=O)NCc3ccc(S(N)(=O)=O)cc3)nc3ccccc3c2=O)cc1` [Compound 137, 3-(4-Oxo-3-p-tolyl-3,4-dihydro-quinazolin-2-yl)-N-(4-sulfamoyl-benzyl)-propionamide], for which the pEC50 in test [1] (setting [3]) was less than 4.60.

Take `O=C(Cn1cnc2ccc(Cl)cc2c1=O)Nc1ccc(S(=O)(=O)N2CCCCCC2)cc1` [Compound 138, N-[4-(Azepane-1-sulfonyl)-phenyl]-2-(6-chloro-4-oxo-4H-quinazolin-3-yl)-acetamide]: the pEC50 in test [1] (setting [3]) is less than 4.60.

For the molecule `O=C(Cn1cnc2cc(F)ccc2c1=O)Nc1ccc(S(=O)(=O)N2CCCCCC2)cc1` [Compound 139, N-[4-(Azepane-1-sulfonyl)-phenyl]-2-(7-fluoro-4-oxo-4H-quinazolin-3-yl)-acetamide], the pEC50 in test [1] (setting [3]) is less than 4.60.
